Experimental data taken from US20150125452A1, “COMBINATION TREATMENTS COMPRISING C-MET ANTAGONISTS AND B-RAF ANTAGONISTS” (GENENTECH, INC., priority 2011, published 2015).

Legend:
[1] = tested on: kinase-addicted cancer cell lines; assay: RTK ligand matrix screen, Syto 60 cell viability; assay type: cell-based, Human; settings: for effect of RTK ligand on conferring drug resistance to kinase inhibitors: 50 ng/mL RTK ligand, 72 h, 41 cell lines
Experimental: (§1) Cell viability was assessed using the nucleic acid stain Syto 60 (Invitrogen). Cells (3000-5000 per well) were seeded into 96 well plates and allowed to adhere overnight. The next day, cells were treated with (or without) 50 ng/mL RTK ligand and concomitantly exposed to an increasing concentration range of the relevant kinase inhibitor. Following 72 hours drug exposure, cells were fixed in 4% formaldehyde, stained with Syto 60 and cell number was assessed using an Odyssey scanner (Li-Cor). Cell viability was calculated by dividing the fluorescence obtained from the drug-treated cells by the fluorescence obtained from the control (no drug) treated cells.
Cell lines. Human cancer cell lines were obtained and tested for sensitivity using an automated platform as previously described (Johannessen, C. M. et al. COT drives resistance to RAF inhibition through MAP kinase pathway reactivation. Nature 468, 968-972, doi:10.1038/nature09627 (2010)). Cell lines were maintained at 37° C. in a humidified atmosphere at 5% CO2 and grown in RPMI 1640 or DMEM/F12 growth media (GIBCO) supplemented with 10% fetal bovine serum (GIBCO), 50 units/mL penicillin and 50 μg/mL streptomycin (GIBCO).
Using 41 different human tumor-derived cell lines with previously defined kinase dependency^7-9, we undertook a “matrix analysis” to examine the effects of 6 different RTK ligands (HGF, EGF, FGF, PDGF, NRG1, IGF)—known to be widely expressed in cancer cells and tumor stroma^10—on drug response. Specifically, we quantified the effect of exposing these cancer cell lines (e.g., AU565 (HER2 amp)) to each ligand on the IC50 for a kinase inhibitor (e.g., lapatinib) that otherwise potently suppresses their growth within 72 hours (FIG. 1A). Nearly all of the kinase-dependent cancer cell lines tested, which included cells derived from multiple tissue types and with distinct kinase dependencies (EGFR, HER2, BRAF, MET, ALK, PDGFR, and FGFR), could be rescued from drug-induced growth inhibition by one or more RTK ligands, highlighting the potentially broad contribution of these ligands to the response to selective kinase inhibitors in kinase-addicted tumor cells (FIG. 1B).

928MEL xenografts = assay: Xenograft tumour growth assay; assay type: in vivo, CRL C.B-17 SCID.bg mice; settings: for tumor regression, B-raf antagonist plus c-met antagonist versus PLX[…] alone: PLX[…]-treated xenografts
Experimental: […] Differences between the 2 groups were determined using two-way ANOVA (*=0.0008).
All procedures conformed to the guidelines and principles set by the Institutional Animal care and Use Committee of Genentech and were carried out in an AAALAC (Association for the Assessment and Accreditation of Laboratory Animal care) accredited facility. […] Tumor volumes were calculated using the formula (Lx(W×W))/2. A partial response (PR) in this example was defined as a reduction in tumour volume greater than 50% but less than 100%. A complete response (CR) in this example was defined as 100% reduction in tumour volume. […]

[2] = tested on: kinase-addicted cancer cell lines; assay: RTK ligand matrix screen, Syto 60 cell viability; assay type: cell-based, Human; settings: six kinase addicted cell lines, six RTK ligands
[3] = tested on: BRAF mutant melanoma cell lines; assay: Syto 60 cell viability, HGF rescue from PLX[…]; assay type: cell-based, Human
Experimental: Cells were treated twice weekly for the indicated times. […] Error bars represent mean+/−s.e.m.
as §1, with “Following 72 hours drug exposure, cells were fixed in 4% formaldehyde, stained with Syto 60 and cell number was assessed using an Odyssey scanner (Li-Cor).” left out

[4] = tested on: HCC1954 HER2 amplified breast cancer cells; settings: lapatinib 5 μM, crizotinib 1 μM, twice weekly
Experimental: Cells were treated twice weekly for the indicated times.
The effects of MET kinase inhibition to delay lapatinib resistance in HCC 1954 cells were examined.

[5] = tested on: AU565 HER2 amplified breast cancer cells; assay: Syto 60 viability and long-term staining with lapatinib and ligands; assay type: cell-based, Human; settings: lapatinib 1 μM, 10 ng/mL NRG1, FGF or combination, 72 h
Experimental: FIGS. 3A-3G: HGF promoted lapatinib resistance in HER2 amplified cell lines. […] HGF rescue is indicated, black squares indicates partial rescue as determined by the initial screen (FIG. 1B). […] Cells were treated every three days for the indicated times. […] FIG. 3D, Immunoblots showing the re-activation of pAKT and pERK in two MET positive (AU565, HCC1954) and one MET negative (BT474) HER2 amplified cell lines. […] FIG. 3E, Representative slides showing MET expression in HER2 positive (3+) breast cancer tissues. FIG. 3F, selection of higher MET expressing AU565 cells following 3× treatments with lapatinib (1 μM) and HGF (50 ng/mL). FIG. 3G. […] Cells were treated twice weekly for the indicated times.
AU565 sells were co-treated with lapatinib (1 μM) in combination with 10 ng/mL NRG1 or FGF. […] Cells were treated with the appropriate kinase inhibitors in the presence of HGF (50 ng/mL). Cells were then treated with either 100 nM PI3K inhibitor (BEZ235) or MAPK inhibitor (AZD6244). Error bars represent mean+/−s.e.m.
as §1

[6] = tested on: AKT and ERK phosphorylation; assay: Immunoblots of survival pathway re-activation; assay type: cell-based, Human; settings: for PI3K/MAPK pathway re-activation by RTK ligand in presence of kinase inhibitor: 50 ng/mL ligand, kinase inhibitor 1 μM, 2 h
Experimental: FIGS. 2A-2C: pro-survival pathway re-activation correlated with RTK ligand rescue. FIG. 2A, Immunoblots showing the effect of acute RTK ligand treatment (50 ng/mL) on AKT and ERK phosphorylation following kinase inhibition (1 μM, 2 h). RTK ligand rescue is indicated, grey squares indicates complete rescue and black squares indicates partial rescue as determined by the initial screen (FIG. 1B). […] Cells were co-treated with 50 ng/mL RTK ligand in the presence of the appropriate secondary kinase inhibitor (0.5 μM) as indicated. […] Error bars represent mean+/−s.e.m. FIG. 2C, Immunoblots showing the effect of acute kinase inhibition (1 μM) in the presence and absence of RTK ligands (50 ng/mL, 2 h) on AKT and ERK phosphorylation. Cells were co-treated with secondary kinase inhibitor (0.5 μM) as appropriate.
Cell lysates were harvested using Nonidet-P40 lysis buffer, supplemented with Halt protease and phosphatase inhibitor cocktail (Thermo Scientific) and immunodetection of proteins was carried out using standard protocols. The phospho-HER2 (Y1248; #2247), HER2 (#2242), phospho-HER3 (Y1289; #4791), phospho-MET (Y1234/5; #3126), PDGFRα (#5241), phospho-FRS2α (Y196; #3864), IGF-1Rβ (#3027), phospho-ALK (Y1604; #3341), AKT (#9272), phospho-ERK (T202/Y204; #9101), ERK (#9102), GAPDH (#2118) and β-Tubulin (#2146) antibodies were purchased from Cell Signaling Technologies. Antibodies to HER3 (SC-285), MET (SC-10), phospho-PDGFRα (SC-12911), FRS2α (SC-8318), FGFR1 (SC-7945), FGFR2 (SC-122), FGFR3 (SC-13121) and ALK (SC-25447) were purchased from Santa Cruz Biotechnologies. Phospho-AKT (S473; #44-621G) antibody was purchased from Invitrogen. Phospho-EGFR (Y1068; ab5644) antibody was purchased from Abeam. EGFR (#610017) antibody was purchased from BD Biosciences. PARP (#14-6666-92) antibody was purchased from eBioscience. Densitometry was carried out using ImageJ software.

[7] = tested on: HER2-amplified breast cancer cell lines; assay: Syto 60 cell viability, ligand rescue from lapatinib; assay type: cell-based, Human; settings: 50 ng/mL ligand, 72 h
Experimental: as §1
The ability of HGF to rescue 3 of 9 tested HER2-amplified breast cancer cell lines from growth inhibition by the HER2 kinase inhibitor lapatinib was also unexpected (FIG. 3A). These 3 cell lines all express MET, and expression was well correlated with the ability of HGF to attenuate lapatinib response (FIG. 3B).

[8] = tested on: BRAF mutant metastatic melanoma patients; assay: BRIM2 clinical trial, outcome by plasma HGF level; assay type: in vivo, human; settings: PLX[…]-treated patients
Experimental: Plasma was obtained from metastatic melanoma patients pre-dose cycle one and the concentration of HGF in patient-derived plasma were quantitatively measured using a sandwich enzyme-linked immunosorbent assay (ELISA). Wells of NUNC MaxiSorp microtiter plates were coated (ON, 4° C.) with 0.5 μg/mL of affinity-purified Goat antihuman hepatocyte growth factor polyclonal antibody in 100 μL of coating buffer (0.05M sodium carbonate buffer, pH 9.6) and were then blocked with 0.5% bovine serum albumin (BSA) in assay buffer (PBS, 0.5% BSA, 0.05% P 20, 0.25% CHAPS, 0.35M NaCl, 5 mM EDTA, 10 ppm Proclin300, pH 7.4) for 1 hour at room temperature. Diluted human hepatocyte growth factor controls and plasma samples (100 μL) in assay buffer were loaded in duplicates and incubated for 2 hours at room temperature, followed by the addition of 100 μL of affinity-purified goat antihuman hepatocyte growth factor biotin (150 ng/mL) for an additional 1 hour at room temperature. Avidin-conjugated horseradish peroxidase (40 ng/mL) in PBS, 0.5% BSA, 0.05% P 20, 10 ppm Proclin300, pH 7.4, was added (1 hour, room temperature), and the reaction was visualized by the addition of 100 μL of chromogenic substrate (TMB) for 15 minutes. The reaction was stopped with 1M phosphoric acid and absorbance at 450 nm was measured with reduction at 630 nm with an ELISA plate reader. Plates were washed 3 times with washing buffer (0.05% Tween 20/PBS) after each step. As a reference for quantification, a standard curve was established by a serial dilution of human hepatocyte growth factor (CritRS CR67; 2000-15.625 pg/mL).
HGF levels were log-transformed, and the Kolmogorov-Smirnoff test was used to test the resulting distribution for departure from the Gaussian distribution. The Cox-proportional model was used to test the log-transformed HGF levels for association with the progression free survival (PFS) and overall survival (OS). Association between the response and HGF levels was tested using the Wilcoxon rank-sum test. Kaplan-Meier (KM) curves were used to show display the relationship between the HGF levels and the time-to-event outcomes (PFS and OS). […] The cox-proportional model of the outcome as the function of the continuous HGF level was used to calculate the hazard ratio and corresponding p-value.

[9] = 10 mice per group, 4 weeks, PR = tumour volume reduction >50% but <100%

Cn1c(=O)n(-c2ccc(C(C)(C)C#N)cc2)c2c3cc(-c4cnc5ccccc5c4)ccc3ncc21 [BEZ235, reference compound]
reversal of HGF-induced rescue by PI3K versus MAPK pathway inhibition ([1]; 100 nM BEZ235 or AZD6244, HGF 50 ng/mL, with kinase inhibitor): more potent at reversing ligand—induced rescue

CCN1CC[C@@H](Nc2n[nH]c3nccc(Oc4ccc(NC(=O)c5ccnn(-c6ccc(F)cc6)c5=O)cc4F)c23)[C@@H](F)C1 [GDC-0712, N-(4-(3-((3S,4R)-1-ethyl-3-fluoropiperidine-4-ylamino)-1H-pyrazolo[3,4-b]pyridin-4-yloxy)-3-fluorophenyl)-2-(4-fluorophenyl)-3-oxo-2,3-dihydropyridazine-4-carboxamide]
partial responses, PLX[…] with MET kinase inhibition (928MEL xenografts; [9]): 8
tumor regression, B-raf antagonist plus c-met antagonist versus PLX[…] alone (928MEL xenografts): greater effect on tumor regression

N.N.[Cl][Pt][Cl] [cisplatin]
RTK ligand rescue from growth suppressive effects of cisplatin [2]: none of the tested RTK ligands could rescue cells

C[C@@H](Oc1cc(-c2cnn(C3CCNCC3)c2)cnc1N)c1c(Cl)ccc(F)c1Cl [crizotinib, 3-[(1R)-1-(2,6-dichloro-3-fluorophenyl)ethoxy]-5-(1-piperidin-4-ylpyrazol-4-yl)pyridin-2-amine]
reversal of HGF survival rescue by MET inhibition ([3]; PLX[…], HGF 50 ng/mL, crizotinib 0.5 μM, 72 h): survival rescue by HGF was reversed
emergence of lapatinib resistance under MET kinase inhibition [4]: delayed the emergence of lapatinib resistance

FGF: recombinant human FGF-basic purchased from Peprotech
effect of RTK ligand on conferring drug resistance to kinase inhibitors [1]: most broadly active ligands
rescue from kinase inhibition by activating both PI3K and MAPK pathways [5]: additive
PI3K/MAPK pathway re-activation by RTK ligand in presence of kinase inhibitor [6]: only re-activated the MAPK pathway

IGF: recombinant human IGF-1 purchased from Peprotech
effect of RTK ligand on conferring drug resistance to kinase inhibitors [1]: relatively little effect
PI3K/MAPK pathway re-activation by RTK ligand in presence of kinase inhibitor [6]: only re-activated the PI3K
downstream signalling after receptor activation in non-rescued cells ([6]; COLO-201 and BT474 cell lines, IGF): downstream signalling via PI3K or MAPK was not observed

NRG1: HER3 ligand, rhNRG1-β1 purchased from R and D Systems
effect of RTK ligand on conferring drug resistance to kinase inhibitors [1]: most broadly active ligands
rescue despite activation of receptor and a downstream survival effector ([1]; H2228 and H358 cells with HGF, COLO-201 cells with NRG1): not sufficient to rescue cells from kinase inhibition
number of HER2-amplified breast cancer cell lines rescued from lapatinib [7]: 8 of the 9
rescue from kinase inhibition by activating both PI3K and MAPK pathways [5]: additive
PI3K/MAPK pathway re-activation by RTK ligand in presence of kinase inhibitor [6]: only re-activated the PI3K

PDGF: recombinant human PDGF-AB purchased from Peprotech
effect of RTK ligand on conferring drug resistance to kinase inhibitors [1]: relatively little effect

PLX4032
correlation of MET expression with PLX[…] sensitivity ([3]; HGF-rescuable cell lines): inversely correlated
hazard ratio, overall survival with increased HGF ([8]; Cox-proportional model, p<0.001): 1.8
hazard ratio, progression free survival with increased HGF ([8]; Cox-proportional model, p<0.005): 1.42
overall survival, HGF above median versus below median ([8]; median plasma HGF 334 pg/mL, p<0.001): substantially reduced
progression-free survival, HGF above median versus below median ([8]; median plasma HGF 334 pg/mL, p=0.005): substantially reduced
partial responses, PLX[…] alone (928MEL xenografts; [9]): 1
tumor regression, B-raf antagonist plus c-met antagonist versus PLX[…] alone (928MEL xenografts): statistically significant improvement in tumor regression
